24 molecules from ChEMBL document CHEMBL1201862, “PubChem BioAssay data set” (2004) can be followed below.

What all share (experiment): NCI anticancer screen, dose series, 48 h
Test [1] deals with HOP-18.
For test [2], the system named is SNB-78.
Test [3] concerns DMS-273.
Test [4] deals with DLD-1.
Test [5] deals with M19-MEL.
Test [6] has as its system LXFL 529.
The test system of test [7] is DMS-114.
For test [8], the system named is XF498.
Test [9] relates to RXF 631.

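Step 1: Grow cells in 96-well plates. Step 2: Expose to compound for 48 hours at 5 concentrations. Step 3: Interpolate endpoints linearly; if unreached, use highest concentration. GI50 marks 50% less growth.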 Active and inactive are the calls of the source. Rule as the data show it: active = GI50 up to about 1.1 µM and inactive = higher. A value given as a limit tells only on which side of the number the result lay.

Consider `COc1cc2c(c(OC)c1OC)-c1ccc(SC)c(=O)cc1C(CC(=O)Oc1cccc(C#N)c1)C2` (stereo unspecified), for which the GI50 in [1] is > 100 µM (inactive); in [2], 0.57 µM (active); in test [3], 0.2 µM (active); in [4], 0.388 µM (active); in test [5], 0.303 µM (active); in test [6] it was 0.516 µM (active). The GI50 was 0.251 µM (active) in test [7] and 0.316 µM (active) in test [8].
With `O=C1OC(O)C(Oc2c(Cl)cccc2Cl)=C1Cl` (stereo unspecified), the GI50 in test [1] is 19.1 µM (inactive); in test [2], 36.1 µM (inactive); in test [3], 15.8 µM (inactive); in test [4], 15.7 µM (inactive); in [6] it was 16.6 µM (inactive).
On to `CC(=O)Nc1ccc(C(=O)NN2C(=O)C(Cl)C2c2ccc(O)cc2)cc1` (stereo unspecified), for which the GI50 was > 100 µM (inactive) in test [2]; > 100 µM (inactive) in [3]; > 100 µM (inactive) in [4]; > 100 µM (inactive) in test [5]; > 100 µM (inactive) in [6]; 52.8 µM (inactive) in test [8].
On to `CC1(C)CC(=O)C(CC2C(=O)c3ccccc3C2=O)C(=O)C1`, for which the GI50 in test [1], in test [2], in test [3], in test [4], in test [5] and in test [6] was > 100 µM (inactive) in each case. Further, the GI50 in test [7] is > 100 µM (inactive).
With `COc1ccc2c(c1)C1(C=N2)CCN(C(C)=O)CC1`, the GI50 is 41.5 µM (inactive) in test [1]; > 100 µM (inactive) in test [2]; > 100 µM (inactive) in test [3]; > 100 µM (inactive) in test [4]; > 100 µM (inactive) in test [5]; > 100 µM (inactive) in test [6]. For the same molecule, the figures for the GI50 in [9] and in test [7] were > 100 µM (inactive) and 60.5 µM (inactive), respectively.
As for `Cc1cc(NS(=O)(=O)c2ccc(NC(=O)c3ccc(Cl)c4c(Nc5ccc(S(N)(=O)=O)cc5)c5ccccc5nc34)cc2)no1`, the GI50 was 30.1 µM (inactive) in test [1]; 36.8 µM (inactive) in test [2]; 21.5 µM (inactive) in test [3]; 21.7 µM (inactive) in [4]; 20 µM (inactive) in test [5]; 15.9 µM (inactive) in test [6]. Also, the GI50 is 21.6 µM (inactive) in [9], 20.2 µM (inactive) in test [7] and 19.5 µM (inactive) in [8].
Consider `CCOC(=O)CNC1C(NC(C)=O)C(OC)OC2COC(c3ccccc3)OC21` (stereo unspecified), for which the GI50 in test [1], in test [2], in [3], in [5], in test [6] and in test [9] was > 100 µM (inactive) throughout. Also, the GI50 in [7] is > 100 µM (inactive).
On to `O=C(O)CCc1coc2ccc(O)cc12`, for which the GI50 in [1], in test [2], in [3], in [4], in test [5] and in [6] was > 100 µM (inactive) throughout. Moreover, the GI50 in test [7] and in test [8] was > 100 µM (inactive) throughout.
On to `C=C1C(=O)OC2/C=C(\CO)C3OC3C3OC3(C)CC(OC(=O)/C(=C/C)COC(C)=O)C12` (stereo unspecified), for which the GI50 in [1] is 9.79 µM (inactive); in test [2] it was 1.73 µM (inactive); in test [3], 3.12 µM (inactive); in test [4], 1.11 µM (active); in test [5], 1.88 µM (inactive); in test [6], 0.805 µM (active). Besides, the GI50 is 5.87 µM (inactive) in test [7] and 1.8 µM (inactive) in [8].
`OCCCCOC(c1ccccc1)(c1ccccc1)c1ccccc1`: the GI50 in test [2], in test [3], in [4], in [6], in test [7] and in test [8] was > 100 µM (inactive) in each case.
As to `CC(=O)NC(CCCCN)C(=O)NCc1ccccc1` (stereo unspecified), the GI50 in test [3], in [4], in test [5], in [6], in [7] and in test [8] was > 100 µM (inactive) each time.
Turning to `CC(=O)Nc1ccccc1-c1cnc2ccccc2n1`, the GI50 in test [1], in test [2], in test [4], in [5], in test [6] and in test [7] was > 100 µM (inactive) throughout. Moreover, the GI50 in test [8] was 29.6 µM (inactive).
In the case of `COc1cccc2c1C(=O)c1c(O)c3c(c(O)c1C2=O)C[C@@](O)(C(C)O)C[C@@H]3OC1CC(N)C(O)C(C)O1` (stereo partly specified), the GI50 in [1] was 0.00497 µM (active); in test [2], 1.88 µM (inactive); in test [3] it was 0.569 µM (active); in [4], 2.99 µM (inactive); in test [5], 1.16 µM (inactive); in test [6], 1.02 µM (active). Besides, the values for the GI50 in test [9], in test [7] and in [8] were 2 µM (inactive), 0.163 µM (active) and 0.614 µM (active), respectively.
For `C=CCC(C)(C(=O)NCCC)C(=O)c1ccccc1O` (stereo unspecified), the GI50 in [1], in [2], in test [3], in test [4], in test [5] and in test [6] was > 100 µM (inactive) throughout. For the same molecule, the GI50 in [7] was > 100 µM (inactive).
As to `C=CCNC1=C(C(=O)OCC)C(=O)CO1`, the GI50 in [2], in [3], in test [4], in test [5], in test [6] and in [9] was > 100 µM (inactive) each time. Also, the GI50 in test [7] and in test [8] was > 100 µM (inactive) each time.
Take `CC(C(=O)c1ccccc1)C1(O)C(=O)Nc2ccccc21` (stereo unspecified): the GI50 in [1], in test [2], in test [3], in [4], in [5] and in test [9] was > 100 µM (inactive) each time. For the same molecule, the GI50 in test [7] is > 100 µM (inactive).
For `C=CCNC(=S)N1CC(C)C(=O)Nc2cc(Cl)ccc21` (stereo unspecified), the GI50 was 39.4 µM (inactive) in test [1]; > 100 µM (inactive) in [2]; > 100 µM (inactive) in [3]; > 100 µM (inactive) in [4]; > 100 µM (inactive) in test [5]; > 100 µM (inactive) in test [6]. The GI50 in [7] was > 100 µM (inactive).
In the case of `COC(=O)[C@H](CC(C)C)NC(=O)[C@H](Cc1ccccc1)N1CC2C=CC1C2` (stereo partly specified), the GI50 in [1], in test [3], in [5], in [6], in [7] and in test [8] was > 100 µM (inactive) each time.
As for `Cc1c(C(=O)CSc2nc3ccccc3[nH]2)c(=O)n(-c2ccccc2)n1C`, the GI50 in test [2], in test [3], in test [4], in test [5], in [6] and in test [8] was > 100 µM (inactive) throughout.
Regarding `c1ccc2[nH]c(-c3nc4ccccc4o3)nc2c1`, the GI50 in [2], in test [3], in [4], in test [5], in test [6] and in test [7] was > 100 µM (inactive) each time. Further, in test [8], the GI50 is > 100 µM (inactive).
In the case of `Cc1c(/C=N/NC(=O)c2ccccc2)c(=O)n(-c2ccccc2)n1C`, the GI50 in test [1], in test [2], in test [3], in [4], in test [5] and in test [6] was > 100 µM (inactive) in each case. Further, the GI50 in test [7] and in test [8] was > 100 µM (inactive) in each case.
Turning to `CCOC(=O)/C(C#N)=C/c1[nH]c(C(=O)OCc2ccccc2)c(C)c1C`, the GI50 in test [1], in [3], in test [4], in test [5], in test [6] and in [9] was > 100 µM (inactive) throughout. Besides, the GI50 in test [7] is > 100 µM (inactive).
For the molecule `CCc1cc(Cc2ccc(C)c(NC(=O)C(=O)C3C(=O)NC(=O)NC3=O)c2CC)cc(C)c1NC(=O)C(=O)C1C(=O)NC(=O)NC1=O`, the GI50 in test [2], in [3], in test [4], in test [5], in [6] and in test [9] was > 100 µM (inactive) throughout. Moreover, in [7], the GI50 was > 100 µM (inactive).
For `COc1ccc2nc(NC(=O)C(=O)C(C(=O)c3ccccc3-c3ccccc3)C3OC(=O)c4ccccc43)sc2c1` (stereo unspecified), the GI50 in [2] is 35 µM (inactive); in test [4], 18.7 µM (inactive); in test [5] it was 15.1 µM (inactive); in test [6], 13.5 µM (inactive); in test [9], 26.6 µM (inactive); in test [7] it was 16.6 µM (inactive). Besides, the GI50 in test [8] was 21.5 µM (inactive).
